In ChEMBL document CHEMBL1155060, “Discovery of brain penetrant, soluble, pyrazole amide EP1 receptor antagonists” (Bioorg Med Chem Lett, 2008):
pIC50, pKi: −log10 of the molar value. In brackets after ≈: the same amount, converted by molar mass. Values belong to the compound of their own block, whether it stands above or below them.

What was measured:
Liver microsomes = test: Metabolic stability assessed as intrinsic clearance in rat liver microsomes; format: ADME, Microsome
[1] = Blood clearance in rat at 1 mg/kg, iv; format: ADME, organism-based; design: dose 1 mg/kg, route intravenous
[2] = Volume of distribution at steady state in rat at 1 mg/kg, iv; format: ADME, organism-based; design: dose 1 mg/kg, route intravenous; conditions: in vivo, read-out: Vdss
[3] = Half life in rat at 1 mg/kg, iv; format: ADME, organism-based; design: dose 1 mg/kg, route intravenous; conditions: in vivo
[4] = Lipophilicity, log D of the compound; format: physicochemical; conditions: octanol/water
[5] = Solubility in water after 0.5 hrs; format: physicochemical
[6] = Solubility in simulated gastric fluid after 0.5 hrs; format: physicochemical
[7] = Solubility in fasted state simulated intestinal fluid after 0.5 hrs; format: physicochemical
[8] = Solubility in fed state simulated intestinal fluid after 0.5 hrs; format: physicochemical
[9] = target: T1, Prostaglandin E2 receptor EP1 subtype (Homo sapiens, UniProt P34995); test: Displacement of [H3PGE2 from human EP1 receptor expressed in CHOK1 cells; format: cell-based, CHO-K1
T1 sequence (P34995 whole entry): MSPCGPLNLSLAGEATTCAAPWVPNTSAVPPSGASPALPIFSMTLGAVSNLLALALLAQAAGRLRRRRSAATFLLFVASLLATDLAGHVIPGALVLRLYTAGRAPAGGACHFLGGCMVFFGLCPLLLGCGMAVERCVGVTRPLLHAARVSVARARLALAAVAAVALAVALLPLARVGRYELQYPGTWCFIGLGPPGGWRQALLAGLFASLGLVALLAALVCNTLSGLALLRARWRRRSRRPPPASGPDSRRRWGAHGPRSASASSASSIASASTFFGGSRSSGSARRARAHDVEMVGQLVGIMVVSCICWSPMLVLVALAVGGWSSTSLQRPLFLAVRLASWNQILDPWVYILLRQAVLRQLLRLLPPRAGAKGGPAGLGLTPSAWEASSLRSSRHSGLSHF

[10] = target: T1, Prostaglandin E2 receptor EP1 subtype; test: Antagonist activity of human PGE2 receptor expressed in CHOK1 cells assessed as inhibition of intracellular calcium mobilisation by FLIPR assay; format: functional, cell-based, CHO-K1
[11] = Solubility in water after 1 hr; format: physicochemical
[12] = Solubility in fed state simulated intestinal fluid after 1 hr; format: physicochemical
[13] = Ratio of drug level in brain to blood in rat at 5 mg/kg, po after 3 hrs; format: ADME, organism-based; design: dose 5 mg/kg, route oral
[14] = Permeability across MDCK cells; format: ADME, cell-based, Canis lupus familiaris; conditions: dog, read-out: permeability
[15] = Solubility in fasted state simulated intestinal fluid after 1 hr; format: physicochemical
[16] = Ratio of drug level in brain to blood in rat at 10 mg/kg, po after 1 hr; format: ADME, organism-based; design: dose 10 mg/kg, route oral
[17] = Ratio of drug level in brain to blood in rat at 3 mg/kg, po after 3 hrs; format: ADME, organism-based; design: dose 3 mg/kg, route oral
[18] = Solubility in water after 2 hrs; format: physicochemical
[19] = Solubility in fed state simulated intestinal fluid after 2 hrs; format: physicochemical
[20] = Drug level in rat blood at 10 mg/kg, po after 1 hr; format: ADME, organism-based; design: dose 10 mg/kg, route oral; conditions: read-out: Drug uptake
[21] = Drug level in rat blood at 3 mg/kg, po after 3 hrs; format: ADME, organism-based; design: dose 3 mg/kg, route oral; conditions: read-out: Drug uptake
[22] = Solubility in simulated gastric fluid after 2 hrs; format: physicochemical
[23] = Solubility in fasted state simulated intestinal fluid after 2 hrs; format: physicochemical
[24] = Solubility in simulated gastric fluid after 1 hr; format: physicochemical

SMILES: Cc1cc(NC(=O)c2ccccc2)nn1Cc1cc(Cl)ccc1OCc1ccccc1
CL (Liver microsomes): 7.3 mL/min/g
clearance [1]: 50 mL/min/kg
Vd [2]: 4.1 L/kg
half-life [3]: 2.5 h
logD [4]: > 3.7
solubility at 0.5 h [5]: 2 µg/mL (≈ 4.63 µM)
solubility at 0.5 h [6]: 2 µg/mL (≈ 4.63 µM)
solubility at 0.5 h [7]: 38 µg/mL (≈ 88 µM)
solubility at 0.5 h [8]: 50 µg/mL (≈ 116 µM)

SMILES: Cc1cc(C(=O)O)nn1Cc1cc(Cl)ccc1OCc1ccccc1
logD [4]: 1

SMILES: Cc1cc(C(=O)Nc2ccccc2)nn1Cc1cc(Cl)ccc1OCc1ccccc1
CL (Liver microsomes): 12 mL/min/g
logD [4]: > 3.7

SMILES: Cc1cc(NC(=O)c2cccc(CN(C)C)c2)nn1Cc1cc(Cl)ccc1OCC(C)C
pIC50 [9]: 6.20

SMILES: Cc1cc(NC(=O)c2cccc(CN3CCCC3)c2)nn1Cc1cc(Cl)ccc1OCC(C)C
pIC50 [9]: 6.90

SMILES: Cc1cc(NC(=O)c2ccc(CN(C)C)cc2)nn1Cc1cc(Cl)ccc1OCC(C)C
pIC50 [9]: 7.00

SMILES: CCNCc1ccc(C(=O)Nc2cc(C)n(Cc3cc(Cl)ccc3OCC(C)C)n2)cc1.Cl
pIC50 [9]: 7.00
pKi [10]: 6.80
CL (Liver microsomes): 1.8 mL/min/g
clearance [1]: 29 mL/min/kg
Vd [2]: 6.3 L/kg
half-life [3]: 2.8 h
Kp at 1 h [16]: 0.8
Kp at 3 h [17]: 0.9
concentration at 1 h [20]: 107 nM
concentration at 3 h [21]: 114 nM
Papp [14]: 52.1 ×10⁻⁶ cm/s
solubility at 2 h [18]: 690 µg/mL
solubility at 2 h [22]: 62 µg/mL
solubility at 2 h [23]: 14 µg/mL
solubility at 2 h [19]: 154 µg/mL

SMILES: Cc1cc(NC(=O)c2cccc(CN3CCCCC3)c2)nn1Cc1cc(Cl)ccc1OCC(C)C
pIC50 [9]: 6.30

SMILES: Cc1cc(NC(=O)c2ccc3c(c2)CCN(C(C)C)C3)nn1Cc1cc(Cl)ccc1OCC(C)C
pIC50 [9]: 7.00

SMILES: Cc1cc(NC(=O)c2ccc(C(C)N3CCCC3)cc2)nn1Cc1cc(Cl)ccc1OCC(C)C (configuration not stated)
pIC50 [9]: 7.30

SMILES: Cc1cc(NC(=O)c2ccc(C3CCCN3)cc2)nn1Cc1cc(Cl)ccc1OCC(C)C (configuration not stated)
pIC50 [9]: 7.00
pKi [10]: 7.00

SMILES: Cc1cc(NC(=O)c2ccc3c(c2)CCNCC3)nn1Cc1cc(Cl)ccc1OCC(C)C
pIC50 [9]: 7.10

SMILES: CCN1CCc2ccc(C(=O)Nc3cc(C)n(Cc4cc(Cl)ccc4OCC(C)C)n3)cc2CC1
pIC50 [9]: 7.30
pKi [10]: 7.30

SMILES: CCNCc1cccc(C(=O)Nc2cc(C)n(Cc3cc(Cl)ccc3OCC(C)C)n2)c1
pIC50 [9]: 6.30

SMILES: Cc1cc(NC(=O)c2cccc(CN3CCOCC3)c2)nn1Cc1cc(Cl)ccc1OCC(C)C
pIC50 [9]: 6.60

SMILES: Cc1cc(NC(=O)c2ccc(CN3CCOCC3)cc2)nn1Cc1cc(Cl)ccc1OCC(C)C
pIC50 [9]: 7.30

The remaining lines, values ahead:

pIC50 [9]: 7.90
SMILES: Cc1cc(NC(=O)c2ccc(CO)cc2)nn1Cc1cc(Cl)ccc1OCC(C)C

pIC50 [9]: 8.00
pKi [10]: 7.10
SMILES: Cc1cc(C(=O)Nc2ccc(CN3CCOCC3)cc2)nn1Cc1cc(Cl)ccc1OCc1ccccc1

pIC50 [9]: 7.90
SMILES: Cc1cc(C(=O)Nc2ccc(CN3CCCC3)cc2)nn1Cc1cc(Cl)ccc1OCc1ccccc1

pIC50 [9]: 7.60
SMILES: Cc1cc(NC(=O)c2ccccc2CO)nn1Cc1cc(Cl)ccc1OCC(C)C

pIC50 [9]: 7.90
solubility at 1 h [11]: 373 µg/mL
solubility at 1 h [12]: 64 µg/mL
SMILES: Cc1cc(C(=O)Nc2ccc(CN3CCCCC3)cc2)nn1Cc1cc(Cl)ccc1OCc1ccccc1.Cl

pIC50 [9]: 7.90
pKi [10]: 6.90
CL (Liver microsomes): 1.8 mL/min/g
clearance [1]: 46 mL/min/kg
Vd [2]: 9.7 L/kg
half-life [3]: 3 h
Kp at 3 h [13]: 1.4
Papp [14]: 31.8 ×10⁻⁶ cm/s
solubility at 1 h [11]: 253 µg/mL
solubility at 1 h [15]: 57 µg/mL
solubility at 1 h [12]: 185 µg/mL
SMILES: CNCc1ccc(NC(=O)c2cc(C)n(Cc3cc(Cl)ccc3OCc3ccccc3)n2)cc1.Cl

pIC50 [9]: 7.90
SMILES: CCNCc1ccc(NC(=O)c2cc(C)n(Cc3cc(Cl)ccc3OCc3ccccc3)n2)cc1

pIC50 [9]: 8.10
SMILES: Cc1cc(C(=O)Nc2ccc(CN(C)C)cc2)nn1Cc1cc(Cl)ccc1OCc1ccccc1

pIC50 [9]: 7.30
pKi [10]: 6.80
CL (Liver microsomes): 3.2 mL/min/g
clearance [1]: 46 mL/min/kg
Vd [2]: 4.6 L/kg
half-life [3]: 1.4 h
Kp at 1 h [16]: 1.2
Kp at 3 h [17]: 2
Papp [14]: 36 ×10⁻⁶ cm/s
solubility at 2 h [18]: > 1000 µg/mL
solubility at 2 h [19]: 520 µg/mL
SMILES: Cc1cc(NC(=O)c2ccc(CN3CCCC3)cc2)nn1Cc1cc(Cl)ccc1OCC(C)C.Cl

pIC50 [9]: 8.10
pKi [10]: 7.10
solubility at 1 h [11]: 474 µg/mL
solubility at 1 h [24]: 364 µg/mL
solubility at 1 h [15]: 483 µg/mL
solubility at 1 h [12]: 589 µg/mL
SMILES: CNCc1ccc(NC(=O)c2cc(C)n(Cc3cc(Cl)ccc3OCC(C)C)n2)cc1.Cl

pIC50 [9]: 8.30
SMILES: Cc1cc(C(=O)Nc2ccc(CN(C)C)cc2)nn1Cc1cc(Cl)ccc1OCC(C)C

pIC50 [9]: 7.40
solubility at 2 h [18]: > 1000 µg/mL
solubility at 2 h [22]: 30 µg/mL
solubility at 2 h [23]: 90 µg/mL
solubility at 2 h [19]: 240 µg/mL
SMILES: Cc1cc(NC(=O)c2ccc(CN3CCCCC3)cc2)nn1Cc1cc(Cl)ccc1OCC(C)C.Cl

pIC50 [9]: 8.20
solubility at 1 h [11]: 811 µg/mL
solubility at 1 h [24]: 662 µg/mL
solubility at 1 h [15]: 164 µg/mL
solubility at 1 h [12]: 315 µg/mL
SMILES: Cc1cc(C(=O)Nc2ccc(CN3CCCCC3)cc2)nn1Cc1cc(Cl)ccc1OCC(C)C.Cl

pIC50 [9]: 7.40
pKi [10]: 6.90
SMILES: Cc1cc(NC(=O)c2ccc3c(c2)CCNC3)nn1Cc1cc(Cl)ccc1OCC(C)C

pIC50 [9]: 7.30
SMILES: Cc1cc(NC(=O)c2ccc(C(C)NCC(C)C)cc2)nn1Cc1cc(Cl)ccc1OCC(C)C (configuration not stated)

pIC50 [9]: 8.20
SMILES: Cc1cc(C(=O)Nc2ccc(CN3CCCC3)cc2)nn1Cc1cc(Cl)ccc1OCC(C)C

pIC50 [9]: 7.60
pKi [10]: 7.00
SMILES: Cc1cc(C(=O)Nc2ccc(CNCCO)cc2)nn1Cc1cc(Cl)ccc1OCC(C)C

pIC50 [9]: 7.50
SMILES: Cc1cc(C(=O)Nc2ccc(CO)cc2)nn1Cc1cc(Cl)ccc1OCC(C)C

pIC50 [9]: 8.20
pKi [10]: 7.40
SMILES: Cc1cc(C(=O)Nc2ccc(CO)cc2)nn1Cc1cc(Cl)ccc1OCc1ccccc1

pIC50 [9]: 8.10
solubility at 1 h [11]: > 1000 µg/mL
solubility at 1 h [24]: 905 µg/mL
solubility at 1 h [15]: 812 µg/mL
solubility at 1 h [12]: > 1000 µg/mL
SMILES: CCNCc1ccc(NC(=O)c2cc(C)n(Cc3cc(Cl)ccc3OCC(C)C)n2)cc1.Cl

pIC50 [9]: 7.80
pKi [10]: 7.10
SMILES: Cc1cc(C(=O)Nc2ccc(CN(CCO)CCO)cc2)nn1Cc1cc(Cl)ccc1OCC(C)C

pIC50 [9]: 8.10
SMILES: Cc1cc(C(=O)Nc2ccc(CN3CCOCC3)cc2)nn1Cc1cc(Cl)ccc1OCC(C)C
